According to the kinase profiling compilation of Christmann-Franck et al. (2016):

Experiments:
Assay in all cases: radiometric filter-binding kinase assay, Kinase HotSpot
Conditions in all cases: compound 0.5 µM; ATP 10 µM
ABL1 (human) = ABL1 (human) (UniProt P00519)
ACVR1B (human) = ACVR1B (human) (UniProt P36896)
AKT3 (human) = AKT3 (human) (UniProt Q9Y243)
CAMK2D (human) = CAMK2D (human) (UniProt Q13557)
CDK4 CCND3 (human) = CDK4 CCND3 (human) (UniProt P30281+P11802)
CDK5 CDK5R1 p35 (human) = CDK5 CDK5R1 p35 (human) (UniProt Q00535+Q15078)
CDK9 CCNK (human) = CDK9 CCNK (human) (UniProt O75909+P50750)
CLK2 (human) = CLK2 (human) (UniProt P49760)
CSNK1A1 (human) = CSNK1A1 (human) (UniProt P48729)
CSNK1E (human) = CSNK1E (human) (UniProt P49674)
CSNK2A1 (human) = CSNK2A1 (human) (UniProt P68400)
DAPK3 (human) = DAPK3 (human) (UniProt O43293)
DCLK2 (human) = DCLK2 (human) (UniProt Q8N568)
DSTYK (human) = DSTYK (human) (UniProt Q6XUX3)
DYRK1A (human) = DYRK1A (human) (UniProt Q13627)
FER (human) = FER (human) (UniProt P16591)
FLT1 (human) = FLT1 (human) (UniProt P17948)
GRK5 (human) = GRK5 (human) (UniProt P34947)
HIPK3 (human) = HIPK3 (human) (UniProt Q9H422)
IKBKB (human) = IKBKB (human) (UniProt O14920)
IKBKE (human) = IKBKE (human) (UniProt Q14164)
JAK2 JH1 JH2 (human) = JAK2 JH1 JH2 (human) (UniProt O60674)
Chain of JAK2 JH1 JH2 (human) (O60674 whole entry, looked up): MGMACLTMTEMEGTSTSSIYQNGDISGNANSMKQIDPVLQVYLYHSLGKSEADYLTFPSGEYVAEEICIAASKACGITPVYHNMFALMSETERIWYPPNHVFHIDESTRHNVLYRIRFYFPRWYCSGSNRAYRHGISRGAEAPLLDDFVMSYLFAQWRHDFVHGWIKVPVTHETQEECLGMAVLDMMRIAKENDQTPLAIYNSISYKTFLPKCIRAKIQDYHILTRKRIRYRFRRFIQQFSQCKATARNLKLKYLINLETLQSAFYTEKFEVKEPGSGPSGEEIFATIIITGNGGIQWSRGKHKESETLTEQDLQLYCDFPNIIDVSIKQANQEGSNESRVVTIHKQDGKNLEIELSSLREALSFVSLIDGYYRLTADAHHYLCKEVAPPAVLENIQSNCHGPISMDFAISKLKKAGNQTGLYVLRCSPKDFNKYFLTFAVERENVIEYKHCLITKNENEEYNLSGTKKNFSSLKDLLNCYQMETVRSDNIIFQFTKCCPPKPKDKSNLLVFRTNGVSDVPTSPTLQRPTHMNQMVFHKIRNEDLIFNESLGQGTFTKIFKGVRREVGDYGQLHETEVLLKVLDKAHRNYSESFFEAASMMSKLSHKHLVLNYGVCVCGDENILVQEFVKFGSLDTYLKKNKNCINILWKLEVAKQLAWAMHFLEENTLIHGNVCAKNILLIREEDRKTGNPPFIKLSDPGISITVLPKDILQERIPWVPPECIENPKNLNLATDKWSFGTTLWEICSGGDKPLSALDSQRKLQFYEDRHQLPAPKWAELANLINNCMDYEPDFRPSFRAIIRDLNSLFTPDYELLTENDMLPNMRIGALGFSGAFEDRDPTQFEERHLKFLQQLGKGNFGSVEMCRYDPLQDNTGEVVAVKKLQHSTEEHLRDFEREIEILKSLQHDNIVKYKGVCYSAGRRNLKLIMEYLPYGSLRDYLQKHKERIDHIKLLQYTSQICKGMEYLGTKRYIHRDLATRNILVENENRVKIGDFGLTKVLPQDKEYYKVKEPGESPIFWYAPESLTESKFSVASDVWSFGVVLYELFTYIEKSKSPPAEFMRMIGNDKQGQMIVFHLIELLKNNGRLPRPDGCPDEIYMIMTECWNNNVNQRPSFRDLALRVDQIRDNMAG

MAP3K14 (human) = MAP3K14 (human) (UniProt Q99558)
Chain of MAP3K14 (human) (Q99558 whole entry, looked up): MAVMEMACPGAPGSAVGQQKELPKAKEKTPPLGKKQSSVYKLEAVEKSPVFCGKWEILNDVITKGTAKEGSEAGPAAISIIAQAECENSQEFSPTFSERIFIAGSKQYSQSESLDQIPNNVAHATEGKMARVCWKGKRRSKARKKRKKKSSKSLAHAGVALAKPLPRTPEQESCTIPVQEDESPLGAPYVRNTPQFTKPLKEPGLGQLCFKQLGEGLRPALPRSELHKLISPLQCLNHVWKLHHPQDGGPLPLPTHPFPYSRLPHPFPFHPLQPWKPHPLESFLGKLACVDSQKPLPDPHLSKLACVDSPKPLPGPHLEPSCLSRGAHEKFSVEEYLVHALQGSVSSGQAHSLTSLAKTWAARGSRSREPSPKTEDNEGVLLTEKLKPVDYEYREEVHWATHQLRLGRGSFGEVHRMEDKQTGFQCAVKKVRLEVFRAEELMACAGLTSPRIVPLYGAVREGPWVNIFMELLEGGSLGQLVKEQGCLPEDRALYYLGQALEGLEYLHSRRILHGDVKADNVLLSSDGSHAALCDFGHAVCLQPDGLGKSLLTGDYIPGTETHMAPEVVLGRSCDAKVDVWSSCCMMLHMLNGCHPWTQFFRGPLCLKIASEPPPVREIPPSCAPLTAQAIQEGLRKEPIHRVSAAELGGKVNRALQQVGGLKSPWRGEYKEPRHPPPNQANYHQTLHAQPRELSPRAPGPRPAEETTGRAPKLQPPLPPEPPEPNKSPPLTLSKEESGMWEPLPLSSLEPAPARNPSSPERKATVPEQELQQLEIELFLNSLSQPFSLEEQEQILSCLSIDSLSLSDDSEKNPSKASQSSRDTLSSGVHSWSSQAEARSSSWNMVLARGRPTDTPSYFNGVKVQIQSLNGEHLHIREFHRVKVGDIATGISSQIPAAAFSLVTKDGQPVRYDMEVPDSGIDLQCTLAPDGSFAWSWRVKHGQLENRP

MAPK8 (human) = MAPK8 (human) (UniProt P45983)
MET (human) = MET (human) (UniProt P08581)
PAK4 (human) = PAK4 (human) (UniProt O96013)
PAK7 (human) = PAK7 (human) (UniProt Q9P286)
PHKG1 (human) = PHKG1 (human) (UniProt Q16816)
PKN1 (human) = PKN1 (human) (UniProt Q16512)
PKN2 (human) = PKN2 (human) (UniProt Q16513)
Chain of PKN2 (human) (Q16513 whole entry, looked up): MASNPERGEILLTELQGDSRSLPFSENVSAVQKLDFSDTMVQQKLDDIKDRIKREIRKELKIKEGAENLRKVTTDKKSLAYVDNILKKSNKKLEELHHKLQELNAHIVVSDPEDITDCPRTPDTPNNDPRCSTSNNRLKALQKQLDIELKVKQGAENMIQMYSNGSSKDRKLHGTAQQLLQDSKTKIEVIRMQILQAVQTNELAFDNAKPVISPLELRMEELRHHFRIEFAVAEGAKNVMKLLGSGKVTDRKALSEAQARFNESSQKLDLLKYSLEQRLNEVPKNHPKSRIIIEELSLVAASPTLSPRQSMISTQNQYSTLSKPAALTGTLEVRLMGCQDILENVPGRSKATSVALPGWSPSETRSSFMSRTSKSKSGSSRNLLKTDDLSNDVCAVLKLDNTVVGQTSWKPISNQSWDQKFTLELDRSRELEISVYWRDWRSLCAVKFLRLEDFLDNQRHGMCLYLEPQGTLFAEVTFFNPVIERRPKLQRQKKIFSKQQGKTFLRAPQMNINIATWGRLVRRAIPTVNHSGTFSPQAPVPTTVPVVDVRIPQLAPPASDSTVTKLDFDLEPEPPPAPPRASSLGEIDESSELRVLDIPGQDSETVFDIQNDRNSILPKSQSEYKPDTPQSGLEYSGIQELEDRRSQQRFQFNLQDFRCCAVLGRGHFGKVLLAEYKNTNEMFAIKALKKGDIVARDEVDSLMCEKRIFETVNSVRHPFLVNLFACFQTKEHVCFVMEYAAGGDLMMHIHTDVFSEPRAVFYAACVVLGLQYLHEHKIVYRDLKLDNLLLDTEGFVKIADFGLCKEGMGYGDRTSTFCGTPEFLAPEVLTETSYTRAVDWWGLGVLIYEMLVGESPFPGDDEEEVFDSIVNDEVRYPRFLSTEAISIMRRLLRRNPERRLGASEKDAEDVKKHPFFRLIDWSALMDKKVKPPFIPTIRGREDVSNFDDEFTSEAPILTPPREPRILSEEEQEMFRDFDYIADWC

PRKCD (human) = PRKCD (human) (UniProt Q05655)
Chain of PRKCD (human) (Q05655 whole entry, looked up): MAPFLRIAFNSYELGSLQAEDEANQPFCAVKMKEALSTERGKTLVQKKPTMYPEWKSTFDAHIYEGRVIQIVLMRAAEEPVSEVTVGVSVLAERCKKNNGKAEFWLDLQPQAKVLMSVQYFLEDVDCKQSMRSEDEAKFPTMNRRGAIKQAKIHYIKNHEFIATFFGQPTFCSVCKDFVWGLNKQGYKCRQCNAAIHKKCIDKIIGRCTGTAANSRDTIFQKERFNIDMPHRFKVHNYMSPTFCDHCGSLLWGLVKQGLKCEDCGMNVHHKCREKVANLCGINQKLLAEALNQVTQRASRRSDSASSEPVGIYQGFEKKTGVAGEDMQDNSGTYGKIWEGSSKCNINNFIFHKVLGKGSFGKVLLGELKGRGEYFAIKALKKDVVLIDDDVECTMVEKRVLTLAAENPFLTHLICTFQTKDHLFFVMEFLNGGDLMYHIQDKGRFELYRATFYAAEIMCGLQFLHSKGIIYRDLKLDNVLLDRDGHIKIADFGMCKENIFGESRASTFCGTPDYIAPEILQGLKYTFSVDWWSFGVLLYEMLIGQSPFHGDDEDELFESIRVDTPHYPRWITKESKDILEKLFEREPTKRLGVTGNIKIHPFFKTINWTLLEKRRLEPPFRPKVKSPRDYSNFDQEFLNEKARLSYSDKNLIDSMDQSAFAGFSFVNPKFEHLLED

PRKCE (human) = PRKCE (human) (UniProt Q02156)
PRKD1 (human) = PRKD1 (human) (UniProt Q15139)
PRKD3 (human) = PRKD3 (human) (UniProt O94806)
PRKX (human) = PRKX (human) (UniProt P51817)
Chain of PRKX (human) (P51817 whole entry, looked up): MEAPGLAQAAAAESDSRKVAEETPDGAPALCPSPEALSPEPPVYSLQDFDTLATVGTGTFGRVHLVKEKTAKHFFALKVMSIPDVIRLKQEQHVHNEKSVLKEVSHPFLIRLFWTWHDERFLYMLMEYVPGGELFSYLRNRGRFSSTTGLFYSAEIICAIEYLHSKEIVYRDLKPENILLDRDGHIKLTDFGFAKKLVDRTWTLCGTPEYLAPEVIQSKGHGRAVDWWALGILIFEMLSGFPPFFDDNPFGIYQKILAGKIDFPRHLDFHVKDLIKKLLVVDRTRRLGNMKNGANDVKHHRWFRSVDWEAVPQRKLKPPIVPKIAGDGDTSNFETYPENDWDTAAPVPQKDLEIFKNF

RPS6KB1 (human) = RPS6KB1 (human) (UniProt P23443)
SGK2 (human) = SGK2 (human) (UniProt Q9HBY8)
SLK (human) = SLK (human) (UniProt Q9H2G2)
STK11 (human) = STK11 (human) (UniProt Q15831)
STK17A (human) = STK17A (human) (UniProt Q9UEE5)
Chain of STK17A (human) (Q9UEE5 whole entry, looked up): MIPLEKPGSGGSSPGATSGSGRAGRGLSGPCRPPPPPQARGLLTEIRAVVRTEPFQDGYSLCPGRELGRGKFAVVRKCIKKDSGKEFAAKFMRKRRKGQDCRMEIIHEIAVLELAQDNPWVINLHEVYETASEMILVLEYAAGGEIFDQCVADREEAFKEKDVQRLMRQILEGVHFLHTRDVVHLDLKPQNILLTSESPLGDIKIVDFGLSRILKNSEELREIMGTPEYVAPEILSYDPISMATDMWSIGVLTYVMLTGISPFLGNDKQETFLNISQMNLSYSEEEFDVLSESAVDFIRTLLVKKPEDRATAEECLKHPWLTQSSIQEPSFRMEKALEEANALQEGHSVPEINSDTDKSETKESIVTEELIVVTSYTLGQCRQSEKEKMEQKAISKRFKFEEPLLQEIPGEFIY

STK33 (human) = STK33 (human) (UniProt Q9BYT3)
ULK2 (human) = ULK2 (human) (UniProt Q8IYT8)

Chain of AKT3 (human) (Q9Y243 whole entry, looked up): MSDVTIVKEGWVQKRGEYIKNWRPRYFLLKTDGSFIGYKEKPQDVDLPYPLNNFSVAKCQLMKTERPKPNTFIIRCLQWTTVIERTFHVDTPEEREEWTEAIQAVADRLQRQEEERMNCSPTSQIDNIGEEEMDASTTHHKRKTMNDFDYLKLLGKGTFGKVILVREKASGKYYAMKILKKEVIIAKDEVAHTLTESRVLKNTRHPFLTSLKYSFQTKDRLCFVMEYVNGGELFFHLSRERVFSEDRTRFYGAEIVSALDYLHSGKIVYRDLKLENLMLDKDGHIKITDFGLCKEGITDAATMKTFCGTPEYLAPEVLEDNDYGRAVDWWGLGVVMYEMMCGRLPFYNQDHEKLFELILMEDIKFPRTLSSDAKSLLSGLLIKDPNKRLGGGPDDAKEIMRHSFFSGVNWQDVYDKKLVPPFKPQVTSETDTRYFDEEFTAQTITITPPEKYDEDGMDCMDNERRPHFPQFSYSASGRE

## CS(=O)(=O)CCNCc1ccc(-c2ccc3ncnc(Nc4ccc(OCc5cccc(F)c5)c(Cl)c4)c3c2)o1
ABL1 (human)
  residual activity: 96.4%
ACVR1B (human)
  residual activity: 98.7%
AKT3 (human)
  residual activity: 83.5%
CAMK2D (human)
  residual activity: 92.5%
CDK4 CCND3 (human)
  residual activity: 104%
CDK5 CDK5R1 p35 (human)
  residual activity: 103%
CDK9 CCNK (human)
  residual activity: 103%
CLK2 (human)
  residual activity: 95.1%
CSNK1A1 (human)
  residual activity: 104%
CSNK1E (human)
  residual activity: 99.4%
CSNK2A1 (human)
  residual activity: 121%
DAPK3 (human)
  residual activity: 97.4%
DCLK2 (human)
  residual activity: 101%
DSTYK (human)
  residual activity: 108%
DYRK1A (human)
  residual activity: 101%
FER (human)
  residual activity: 94.6%
FLT1 (human)
  residual activity: 100%
GRK5 (human)
  residual activity: 97.2%
HIPK3 (human)
  residual activity: 99.1%
IKBKB (human)
  residual activity: 81%
IKBKE (human)
  residual activity: 94.9%
JAK2 JH1 JH2 (human)
  residual activity: 101%
MAP3K14 (human)
  residual activity: 109%
MAPK8 (human)
  residual activity: 91.9%
MET (human)
  residual activity: 84.1%
PAK4 (human)
  residual activity: 89.9%
PAK7 (human)
  residual activity: 98.5%
PHKG1 (human)
  residual activity: 95.7%
PKN1 (human)
  residual activity: 106%
PKN2 (human)
  residual activity: 92%
PRKCD (human)
  residual activity: 103%
PRKCE (human)
  residual activity: 98%
PRKD1 (human)
  residual activity: 99.4%
PRKD3 (human)
  residual activity: 88.6%
PRKX (human)
  residual activity: 111%
RPS6KB1 (human)
  residual activity: 95.7%
SGK2 (human)
  residual activity: 106%
SLK (human)
  residual activity: 85.1%
STK11 (human)
  residual activity: 106%
STK17A (human)
  residual activity: 89.7%
STK33 (human)
  residual activity: 94.7%
ULK2 (human)
  residual activity: 104%

## COc1ccc2c(c1)/C(=C/c1cnc[nH]1)C(O)=N2
ABL1 (human)
  residual activity: 93%
ACVR1B (human)
  residual activity: 105%
AKT3 (human)
  residual activity: 101%
CAMK2D (human)
  residual activity: 78.8%
CDK4 CCND3 (human)
  residual activity: 49.6%
CDK5 CDK5R1 p35 (human)
  residual activity: -0.369%
CDK9 CCNK (human)
  residual activity: 59.4%
CLK2 (human)
  residual activity: 80.6%
CSNK1A1 (human)
  residual activity: 86.4%
CSNK1E (human)
  residual activity: 80%
CSNK2A1 (human)
  residual activity: 67.8%
DAPK3 (human)
  residual activity: 101%
DCLK2 (human)
  residual activity: 96%
DSTYK (human)
  residual activity: 106%
DYRK1A (human)
  residual activity: 70.4%
FER (human)
  residual activity: 88.4%
FLT1 (human)
  residual activity: 73.9%
GRK5 (human)
  residual activity: 97%
HIPK3 (human)
  residual activity: 101%
IKBKB (human)
  residual activity: 94.9%
IKBKE (human)
  residual activity: 92.5%
JAK2 JH1 JH2 (human)
  residual activity: 88.9%
MAP3K14 (human)
  residual activity: 96.9%
MAPK8 (human)
  residual activity: 95.9%
MET (human)
  residual activity: 103%
PAK4 (human)
  residual activity: 100%
PAK7 (human)
  residual activity: 96.9%
PHKG1 (human)
  residual activity: 53.8%
PKN1 (human)
  residual activity: 87.4%
PKN2 (human)
  residual activity: 90.8%
PRKCD (human)
  residual activity: 95.5%
PRKCE (human)
  residual activity: 99%
PRKD1 (human)
  residual activity: 47.9%
PRKD3 (human)
  residual activity: 38%
PRKX (human)
  residual activity: 87.9%
RPS6KB1 (human)
  residual activity: 98.2%
SGK2 (human)
  residual activity: 71.4%
SLK (human)
  residual activity: 81.9%
STK11 (human)
  residual activity: 51.7%
STK17A (human)
  residual activity: 42.3%
STK33 (human)
  residual activity: 74.7%
ULK2 (human)
  residual activity: 97.7%

## O=C(c1cc2cc(O)ccc2[nH]1)c1cc2cc(O)ccc2[nH]1
ABL1 (human)
  residual activity: 27.8%
ACVR1B (human)
  residual activity: 98.9%
AKT3 (human)
  residual activity: 102%
CAMK2D (human)
  residual activity: 63.7%
CDK4 CCND3 (human)
  residual activity: 105%
CDK5 CDK5R1 p35 (human)
  residual activity: 57.3%
CDK9 CCNK (human)
  residual activity: 49.5%
CLK2 (human)
  residual activity: 105%
CSNK1A1 (human)
  residual activity: 96.3%
CSNK1E (human)
  residual activity: 88.4%
CSNK2A1 (human)
  residual activity: 88.7%
DAPK3 (human)
  residual activity: 104%
DCLK2 (human)
  residual activity: 88.4%
DSTYK (human)
  residual activity: 95.5%
DYRK1A (human)
  residual activity: 103%
FER (human)
  residual activity: 86.6%
FLT1 (human)
  residual activity: 81.3%
GRK5 (human)
  residual activity: 104%
HIPK3 (human)
  residual activity: 97.3%
IKBKB (human)
  residual activity: 91.3%
IKBKE (human)
  residual activity: 81.6%
JAK2 JH1 JH2 (human)
  residual activity: 95.6%
MAP3K14 (human)
  residual activity: 77.1%
MAPK8 (human)
  residual activity: 112%
MET (human)
  residual activity: 89.2%
PAK4 (human)
  residual activity: 111%
PAK7 (human)
  residual activity: 85.3%
PHKG1 (human)
  residual activity: 72.1%
PKN1 (human)
  residual activity: 76.3%
PKN2 (human)
  residual activity: 97.1%
PRKCD (human)
  residual activity: 89.7%
PRKCE (human)
  residual activity: 119%
PRKD1 (human)
  residual activity: 58.5%
PRKD3 (human)
  residual activity: 54.9%
PRKX (human)
  residual activity: 94.5%
RPS6KB1 (human)
  residual activity: 85%
SGK2 (human)
  residual activity: 94.3%
SLK (human)
  residual activity: 78.6%
STK11 (human)
  residual activity: 101%
STK17A (human)
  residual activity: 51.7%
STK33 (human)
  residual activity: 77.5%
ULK2 (human)
  residual activity: 94.5%

## Cc1nc(-c2ccccc2)c(-c2ccncc2)o1
ABL1 (human)
  residual activity: 100%
ACVR1B (human)
  residual activity: 99.3%
AKT3 (human)
  residual activity: 106%
CAMK2D (human)
  residual activity: 94.2%
CDK4 CCND3 (human)
  residual activity: 107%
CDK5 CDK5R1 p35 (human)
  residual activity: 104%
CDK9 CCNK (human)
  residual activity: 101%
CLK2 (human)
  residual activity: 98.2%
CSNK1A1 (human)
  residual activity: 86.4%
CSNK1E (human)
  residual activity: 69.9%
CSNK2A1 (human)
  residual activity: 109%
DAPK3 (human)
  residual activity: 101%
DCLK2 (human)
  residual activity: 97%
DSTYK (human)
  residual activity: 91%
DYRK1A (human)
  residual activity: 98.4%
FER (human)
  residual activity: 84.9%
FLT1 (human)
  residual activity: 79.4%
GRK5 (human)
  residual activity: 104%
HIPK3 (human)
  residual activity: 107%
IKBKB (human)
  residual activity: 105%
IKBKE (human)
  residual activity: 102%
JAK2 JH1 JH2 (human)
  residual activity: 98.4%
MAP3K14 (human)
  residual activity: 96.2%
MAPK8 (human)
  residual activity: 99.5%
MET (human)
  residual activity: 102%
PAK4 (human)
  residual activity: 101%
PAK7 (human)
  residual activity: 96.1%
PHKG1 (human)
  residual activity: 96.1%
PKN1 (human)
  residual activity: 101%
PKN2 (human)
  residual activity: 93.4%
PRKCD (human)
  residual activity: 96.2%
PRKCE (human)
  residual activity: 103%
PRKD1 (human)
  residual activity: 95.6%
PRKD3 (human)
  residual activity: 94.3%
PRKX (human)
  residual activity: 101%
RPS6KB1 (human)
  residual activity: 92.8%
SGK2 (human)
  residual activity: 105%
SLK (human)
  residual activity: 101%
STK11 (human)
  residual activity: 98.4%
STK17A (human)
  residual activity: 99.5%
STK33 (human)
  residual activity: 99.3%
ULK2 (human)
  residual activity: 102%
